# Target: T1, APOL1 G1 (Homo sapiens, UniProt O14791, I384M/S342G)
# T1 sequence (O14791 28-398 S342G/I384M): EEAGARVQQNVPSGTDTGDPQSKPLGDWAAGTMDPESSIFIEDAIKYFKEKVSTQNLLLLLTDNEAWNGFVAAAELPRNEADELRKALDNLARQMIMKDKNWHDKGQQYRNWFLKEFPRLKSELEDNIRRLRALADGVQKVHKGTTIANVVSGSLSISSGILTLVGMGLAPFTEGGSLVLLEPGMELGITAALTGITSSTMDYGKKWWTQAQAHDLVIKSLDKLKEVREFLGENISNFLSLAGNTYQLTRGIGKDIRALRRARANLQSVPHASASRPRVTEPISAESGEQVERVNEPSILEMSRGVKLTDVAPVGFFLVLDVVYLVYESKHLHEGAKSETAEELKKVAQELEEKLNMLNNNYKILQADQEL
# Experiment: MultiTox-Fluor Multiplex Cytotoxicity Assay in tet-inducible APOL1 G1 T-REx-HEK293 cells (clone G1 DC3.25)
# Type: cell-based
# Design: expressed in transfected cells; host or cells: T-REx HEK293, pAAVS1-Puro-APOL1 G1, clone G1 DC3.25
# Settings: Multi-Tox Assay; IP50 = IC50 for cell proliferation; APOL1 variant cell line not given
# Protocol: The MultiTox-Fluor Multiplex Cytotoxicity Assay is a single-reagent-addition, homogeneous, fluorescence assay that measures the number of live and dead cells simultaneously in culture wells. The assay measures cell viability and cytotoxicity by detecting two distinct protease activities. The live-cell protease activity is restricted to intact viable cells and is measured using a fluorogenic, cell-permeant peptide glycyl-phenylalanylamino fluorocoumarin (GF-AFC) substrate. The substrate enters intact cells, where it is cleaved to generate a fluorescent signal proportional to the number of living cells. […] A second, cell-impermeant, fluorogenic peptide substrate (bis-AAF-R110 Substrate) is used to measure dead-cell protease that has been released from cells that have lost membrane integrity. A ratio of dead to live cells is used to normalize data.
# Briefly, the tet-inducible transgenic APOL1 T-REx-HEK293 cell lines were incubated with 50 ng/mL tet to induce APOL1 in the presence of 3-(2-(4-fluorophenyl)-1H-indol-3-yl)-N-((3S,4R)-4-hydroxy-2-oxopyrrolidin-3-yl)propenamide at […], 0.0045, 0.0015, 0.0005 μM in duplicate for 24 hours in a humidified 37° C. incubator. The MultiTox reagent was added to each well and placed back in the incubator for an additional 30 minutes. The plate was read on the EnVision plate reader. A ratio of dead to live cells was used to normalize, and data was imported, analyzed and fit using Genedata Screener (Basel, Switzerland) software. Data was normalized using percent of control, no tet (100% viability), and 50 ng/mL tet treated (0% viability), and fit using Smart Fit. The reagents, methods, and complete protocol for the MultiTox assay are described below.
# Human embryonic kidney (HEK293) cell lines containing a tet-inducible expression system (T-REx™; Invitrogen, Carlsbad, CA) and Adeno-associated virus site 1 pAAVS1-Puro-APOL1 G0 or pAAVS1-Puro-APOL1 G1 or pAAVS1-Puro-APOL1 G2 Clones G0 DC2.13, G1 DC3.25, and G2 DC4.44 were grown in a T-225 flask at ˜90% confluency in cell growth media (DMEM, 10% Tet-free FBS, 2 mM L-glutamine, 100 Units/mL penicillin-streptomycin, 5 μg/mL blasticidin S HCl, 1 μg/mL puromycin dihydrochloride). Cells were washed with DPBS and then trypsinized to dissociate from the flask. Media was used to quench the trypsin, cells were then pelleted at 200 g and resuspended in fresh cell assay media (DMEM, 2% Tet-free FBS, 2 mM L-glutamine, 100 Units/mL penicillin-streptomycin). Cells were counted and diluted to 1.17×10^6 cells/mL. 20 μL of cells (23,400/well) were dispensed to every well of a 384-well Poly-D-Lysine coated plate using the Multidrop dispenser. The plates were then incubated at room temperature for one hour.
# Tetracycline is needed to induce APOL1 expression. 1 mg/mL tet stock in water was diluted to 250 ng/mL (5×) in cell assay media. 60 μL of cell assay media (no tet control) was dispensed in columns 1 and 24, and 60 μL of 5× tet was dispensed in 384-PP-round bottom plate in columns 2 to 23 with the Multidrop dispenser.
# Assay ready plates from the Global Compound Archive were ordered using template 384_APOL1Cell_DR10n2_50 μM_v3. Compounds were dispensed at 200 nL in DMSO. The final top concentration was 10 μM with a 10 point 3-fold dilution in duplicate in the MultiTox assay.
# 20 μL were transferred from the 5× tet plate to the ARP and mixed, then 5 μL of 5× tet and the compounds were transferred to the cell plate and mixed using the Bravo. The cell plate was placed in the humidified 37° C. 5% CO2 incubator for 24 hours.
# The MultiTox-Fluor Multiplex Cytotoxicity Assay was performed in accordance with the manufacturer's protocol. After cells were incubated with tet and compound for 24 hours, 25 μL of 1× MultiTox reagent was added to each well using the Multidrop dispenser; the plates were placed on a plate shaker (600 rpm) for 2 minutes, then centrifuged briefly and placed back in the 37° C. incubator for 30 minutes. […]
smiles,measurement,value
"[2H]C1([2H])O[C@@]2(C[C@@H](c3cn(C)nn3)N[C@@H](C)C2)c2sc(Cl)cc2[C@]1([2H])O [Compound 385, (2S,4S,4′S,6S)-2′-chloro-4′,5′,5′-trideuterio-2-methyl-6-(1-methyltriazol-4-yl)spiro[piperidine-4,7′-thieno[2,3-c]pyran]-4′-ol]",IC50,< 50 nM
